We go through four molecules from patent publication US20100248224A1, “DNA FRAGMENTATION ASSAY” (priority 2006, published 2010).

Holding throughout (format): cell-based, human
The test system of data set [1] is HL-60 cells. The experiment in a line: Inhibition of camptothecin-induced DNA fragmentation in HL-60 cells, PicoGreen detection. Particulars: 20 hours, FIG. 6. The source says: Zinc has been known to inhibit apoptosis induced by both chemical and death-receptor agonists. […] DNA fragments released from cells were quantified with PicoGreen reagent as described above. For samples with camptothecin, without zinc chloride or at low concentrations, fluorescence signal was more than 3 fold of that from samples with DMSO treatment.

In data set [2] the test system is HL-60 cells. Briefly: DMSO tolerance in HL-60 cells, PicoGreen fluorescent assay. Particulars: 20 hr incubation, 0.3 million cells/mL, FIG. 11. The method, then:
HL-60 cells in mid-log phase (0.3 million cells/mL) were treated with different doses of DMSO for 20 hours. An equal volume of the lysis buffer (20 mM Tris-HCl (pH 8.0), 20 mM EDTA, 0.2% Tween-20 and 5 ug/ml. RNase) was added into the total cell culture. The cell lysate was centrifuged at 2000×g for 20 min. The top portion of the supernatant was withdrawn and DNA content was quantitated using the PicoGreen fluorescent assay.

The subject of data set [3] is HL-60 cells. The experiment in a line: PicoGreen detection of DNA fragmentation in HL-60 cell lysates. Particulars: for EC50: HL-60 cells 0.3 million cells/ml, treated 20 hours, FIG. 3, read-out: EC50 value, DNA fragmentation detected with PicoGreen. The procedure:
An equal volume of the lysis buffer (20 mM Tris-HCl (pH 8.0), 20 mM EDTA, 0.2% Tween-20 and 5 ug/mL RNase) was added into the total cell culture. […] The dose response curve of camptothecin using PicoGreen detection (FIG. 3) was compared to propidium iodide detection (FIG. 4).

Data set [4] deals with HL-60 cells. The experiment in a line: ELISA detection of DNA fragmentation in HL-60 cell lysates (Cell Death Detection ELISA kit). The settings on record: HL-60 cells 0.3 million cells/ml, treated 20 hours, FIG. 5, read-out: EC50 value, DNA fragmentation determined by ELISA.

Take `[Cl-].[Cl-].[Zn+2]` [zinc chloride]: in the data set with HL-60 cells [1] (zinc chloride 100 uM or higher, with 3.2 μM camptothecin), the “magnitude of camptothecin-induced DNA fragmentation (level of fluorescent signal)” value is given as “decreased to the same level as samples with DMSO treatment only”.
On to `C[S+](C)[O-]` [DMSO, dimethyl sulfoxide], for which the “DMSO concentration tolerated by HL-60 cells” value in the data set on HL-60 cells [2] is given as “up to 1%”.
In the case of `CC[C@@]1(O)C(=O)OCc2c1cc1n(c2=O)Cc2cc3ccccc3nc2-1` [camptothecin, Camptothecin], the PicoGreen fluorescence intensity result in the data set on HL-60 cells [3] (3.2 uM for 5.5 hours vs 0.1% DMSO, 0.4 million cells/mL, FIG. 1) is “increased”. For the same molecule, the “DNA fragmentation, time course” value in the data set with HL-60 cells [3] (3.2 uM, at 4 hours of treatment, FIG. 8) is recorded as “significant increase in DNA fragmentation”. Besides, the EC50 (in general, the midpoint of the concentration-response curve) was determined as 1.48 µM in the data set on HL-60 cells [3] (Homo sapiens) and 1.11 µM in the data set on HL-60 cells [4] (Homo sapiens). The “fluorescence signal relative to samples with DMSO treatment” value in the data set with HL-60 cells [1] (3.2 μM camptothecin, without zinc chloride or at low concentrations) is given as “more than 3 fold”.
Take Neomycin: the half-maximal effective concentration (EC50) in the data set with HL-60 cells [3] and in the data set on HL-60 cells [4] was over 100 µM throughout.
